The experiment addresses T1, recombinant human LTA4 hydrolase (rhLTA4H) (Homo sapiens, UniProt P09960).
T1 construct: made in house; host or cells: Spodoptera frugiperda (Sf-9) cells, baculovirus (pFastBac1)
T1 sequence (P09960 1-611): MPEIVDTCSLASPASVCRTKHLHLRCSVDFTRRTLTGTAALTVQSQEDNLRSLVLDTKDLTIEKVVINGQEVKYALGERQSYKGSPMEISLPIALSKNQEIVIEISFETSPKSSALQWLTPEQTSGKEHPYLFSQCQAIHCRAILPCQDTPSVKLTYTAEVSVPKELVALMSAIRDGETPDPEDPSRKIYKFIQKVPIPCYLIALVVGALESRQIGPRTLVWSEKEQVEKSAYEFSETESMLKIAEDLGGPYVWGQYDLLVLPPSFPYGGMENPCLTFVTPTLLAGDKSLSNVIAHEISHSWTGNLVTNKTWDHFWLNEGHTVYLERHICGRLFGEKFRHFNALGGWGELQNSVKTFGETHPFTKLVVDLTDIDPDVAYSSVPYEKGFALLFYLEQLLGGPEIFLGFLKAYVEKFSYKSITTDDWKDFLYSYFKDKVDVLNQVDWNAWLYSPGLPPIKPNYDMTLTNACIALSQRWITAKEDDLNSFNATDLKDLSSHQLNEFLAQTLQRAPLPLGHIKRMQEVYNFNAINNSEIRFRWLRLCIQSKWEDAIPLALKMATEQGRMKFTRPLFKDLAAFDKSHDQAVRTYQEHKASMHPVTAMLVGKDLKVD
Nature of the experiment: Recombinant Human LTA4 Hydrolase Assay for LTA4 Hydrolase Inhibitor Activity. Conditions: average of results obtained; LTB4 quantified by enzyme-linked immunoassay. It is filed as biochemical. The method in brief: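 LTB4 formation, quantified by EIA after 10 min at rt, was the read-out once 9 ng LTA4 (free acid) was added to recombinant human enzyme (36 ng, Sf-9 expressed) that had sat 10 min with compound. Buffer: 0.1 M potassium phosphate pH 7.4 with fatty-acid-free BSA; IC50 by 4-parameter fit.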

Results on 13 compounds are retold here after patent publication US8344008B2 (Janssen Pharmaceutica NV, priority 2007, dated 2013).

As usually defined, the Ki is the dissociation constant of the complex between target and ligand, obtained from inhibition or displacement.

Take `CC(=O)N1[C@@H]2CC[C@H]1C[C@@H](NCCc1ccc(Oc3nc4ccc(Cl)cc4s3)cc1)C2` [Example 224, meso-endo-1-(3-{2-[4-(6-Chloro-benzothiazol-2-yloxy)-phenyl]-ethylamino}-8-aza-bicyclo[3.2.1]oct-8-yl)-ethanone]: the Ki was determined as 33 nM.
On to `CS(=O)(=O)N1C[C@@H]2C[C@H]1CN2Cc1ccc(Cc2nc3ccccc3s2)cc1` [Example 45, (S,S)-2-[4-(5-Methanesulfonyl-2,5-diaza-bicyclo[2.2.1]hept-2-ylmethyl)-benzyl]-benzothiazole], for which the Ki came out at 190 nM.
With `CC(=O)N1C[C@@H]2C[C@H]1CN2Cc1ccc(Oc2nc3cc(F)ccc3s2)cc1` [Example 170, (S,S)-1-{5-[4-(5-Fluoro-benzothiazol-2-yloxy)-benzyl]-2,5-diaza-bicyclo[2.2.1]hept-2-yl}-ethanone] the figure was 90 nM.
Next, `NC(=O)N1C[C@H]2C[C@@H]1CN2Cc1ccc(Oc2nc3c(F)cccc3s2)cc1` [Example 186, (R,R)-5-[4-(4-Fluoro-benzothiazol-2-yloxy)-benzyl]-2,5-diaza-bicyclo[2.2.1]heptane-2-carboxylic acid amide]: 10 nM; `CC(=O)N[C@H]1C[C@H]2CC[C@@H](C1)N2Cc1ccc(Oc2nc3c(F)cccc3s2)cc1` [Example 68, meso-endo-N-{8-[4-(4-Fluoro-benzothiazol-2-yloxy)-benzyl]-8-aza-bicyclo[3.2.1]oct-3-yl}-acetamide]: 2 nM; `NC(=O)N1CC2CCN(Cc3ccc(Oc4nc5ccccc5s4)cc3)CC2C1` (single isomer, unassigned; (-)) [Example 142B, (−)-5-[4-(Benzothiazol-2-yloxy)-benzyl]-octahydro-pyrrolo[3,4-c]pyridine-2-carboxylic acid amide]: 95 nM.
Next, `CC(=O)N[C@H]1C[C@H]2CC[C@@H](C1)N2Cc1ccc(Cc2nc3ccccc3s2)cc1` [Example 5, meso-endo-N-[8-(4-Benzothiazol-2-ylmethyl-benzyl)-8-aza-bicyclo[3.2.1]oct-3-yl]-acetamide]: 35 nM.
For the compound `CC(=O)N1[C@@H]2CC[C@H]1C[C@H](NCCOc1ccc(Oc3nc4ccc(Cl)cc4s3)cc1)C2` [Example 178, meso-exo-1-(3-{2-[4-(6-Chloro-benzothiazol-2-yloxy)-phenoxy]-ethylamino}-8-aza-bicyclo[3.2.1]oct-8-yl)-ethanone], the Ki worked out at 900 nM.
On to `O=C(N1C[C@H]2C[C@@H]1CN2Cc1ccc(Oc2nc3ccccc3s2)cc1)C1(O)CC1` [Example 26, (R,R)-{5-[4-(Benzothiazol-2-yloxy)-benzyl]-2,5-diaza-bicyclo[2.2.1]hept-2-yl}-(1-hydroxy-cyclopropyl)-methanone], for which the Ki came to 37 nM.
With `NC(=O)N1C[C@@H]2C[C@H]1CN2Cc1ccc(Oc2nc3ccccc3s2)cc1F` [Example 80, (S,S)-5-[4-(Benzothiazol-2-yloxy)-2-fluoro-benzyl]-2,5-diaza-bicyclo[2.2.1]heptane-2-carboxylic acid amide] the figure was 60 nM; with `COCC(=O)N1C[C@H]2C[C@@H]1CN2Cc1ccc(Oc2nc3ccccc3s2)cc1` [Example 21, (R,R)-1-{5-[4-(Benzothiazol-2-yloxy)-benzyl]-2,5-diaza-bicyclo[2.2.1]hept-2-yl}-2-methoxy-ethanone], 13 nM; with `CC(=O)N1CC2CN(Cc3ccc(Oc4nc5ccccc5s4)cc3)CC2C1` (stereo not shown) [Example 88, 1-{5-[4-(Benzothiazol-2-yloxy)-benzyl]-hexahydro-pyrrolo[3,4-c]pyrrol-2-yl}-ethanone], 3 nM.
Regarding `COCC(=O)N1C[C@@H]2C[C@H]1CN2CCOc1ccc(Oc2nc3ccccc3s2)cc1` [Example 22, (S,S)-1-(5-{2-[4-(Benzothiazol-2-yloxy)-phenoxy]-ethyl}-2,5-diaza-bicyclo[2.2.1]hept-2-yl)-2-methoxy-ethanone], the Ki is 10 nM.
